Where two headings read alike, the source gives them in different places.
What was measured:
[1] = MIBC re-extraction (step #2) of aqueous lower layer from initial MIBC extraction (Example 4); type: physicochemical; details: for Extr #2 % extract / Extr #2 K UL/LL: MIBC re-extraction (step #2); for Extr #2 K UL/LL / Extr #2 LL-wt %: one part MIBC by weight, 25° C.; for Extr #2 LL-wt %: lower layer after MIBC re-extraction (step #2); for extraction from aqueous lower layer by MIBC (in words): MIBC re-extraction, GC results
[2] = MIBC extraction of reactor product: partition between upper MIBC-rich organic layer and lower aqueous layer (Example 3)
Procedure: (§1) The injector temperature was set at 250° C., and the detector temperature was set at 300° C.
Partition coefficients for the concentration by weigh in the upper MIBC-rich organic layer, vs. the lower aqueous layer, are reported in Table 2.

[3] = Comparison of extraction solvents on simulated reaction product mixture (Examples 5A-5D); details: for Kow: one part by weight, 2 weight percent each component in water, 25° C.
Procedure: The reaction product mixture was extracted with one part of by weight solvent, with mixing for a minimum of three minutes, followed by phase separation overnight at 25° C.

[4] = MIBC re-extraction (step #2) of aqueous lower layer from initial MIBC extraction (Example 4); type: physicochemical; details: for Extr #1 K UL/LL: initial (step #1) MIBC extraction; for Extr #1 LL-wt %: lower aqueous layer after initial (step #1) MIBC extraction
Procedure: One part of the upper organic-rich upper layer from Example 3 was removed prior to distillation, extracted with one part by weight of MIBC solvent, by shaking for 3 minutes in a vial via mechanical shaker, followed by allowing to phase separate overnight at 25° C.
Extraction efficiency as measured by the partition coefficient K increased with increasing carbon number for the light alcohol. Glycols, including ethylene glycol (EG) and propylene glycol (PG) were not extracted.

[5] = Extraction of phenols from 1% aqueous solution with toluene or heptane (Examples 5E-5H)
[6] = Toluene extraction of reactor product: partitioning between upper organic and lower aqueous phases (Example 2); details: for Kow UL/LL, partition coefficients for toluene extraction: toluene extractant, stirred at 150° C. for 2 hours, upper toluene-rich phase / lower aqueous-rich phase
Procedure: as §1
Reaction cycles entailed 1 hour at 160° C., followed by 1 hour at 190° C., followed by 3 hours at 240° C. Six cycles of wood addition were effected, which simulated the first hydrothermal reaction. This was followed by heating overnight at 270° C. under 52 bar of H2, which simulated the second hydrothermal reaction to further hydrotreat and complete conversion of various compounds in the first reaction product, which the examples may refer to as intermediates.
Stirring was then stopped, and the reactor allowed to cool. […] Catalyst was left on the reactor bottom.

[7] = Solubility of MPP in deionized water (Example 5E solution); type: physicochemical; details: 1 wt % solution, room temperature, judged by turbidity
[8] = Example 5C, MPP/MIBC extraction solvent
[9] = Ex 5A, toluene extraction solvent
[10] = Ex 5C, 1:1 MPP/MIBC extraction solvent
[11] = Ex 5D, meta-cresol extraction solvent
[12] = concentration by weight in upper MIBC-rich organic layer vs. lower aqueous layer
[13] = Example 5F, 1% MPP in water extracted with heptane
[14] = Example 5B, MPP as extraction solvent
[15] = Example 5G, 1% solution of m-cresol extracted with toluene
[16] = Example 5D, m-cresol as extraction solvent

1-propanol [PrOH]
Extr #2 % extract [1]: 71%
Extr #2 K UL/LL [1]: 1.429
Extr #2 LL-wt % [1]: 0.10 wt %

CC(C)CC(C)O (centres unmarked) [MIBC, methylisobutylcarbinol]
MIBC extraction partition coefficient [2]: 48.12
co-solvent lost to aqueous [3, 8]: 1%

CC(O)CO (centres unmarked) [PG, 1,2-propylene glycol]
MIBC extraction partition coefficient [2]: 0.33
Extr #1 K UL/LL [4]: 0.33
Extr #1 LL-wt % [4]: 0.38 wt %
Extr #2 % extract [1]: −30%
Extr #2 K UL/LL [1]: 0.294
extraction from aqueous lower layer by MIBC (in words) [1]: not extracted
Extr #2 LL-wt % [1]: 0.49 wt %
Kow [3, 9]: 0.013
Kow ([3]; Ex 5B, MPP extraction solvent): 0.084
Kow [3, 10]: 0.042
Kow [3, 11]: 0.197

CCCCCCC [heptane]
extraction solvent lost to the aqueous phase ([5]; Example 5F, heptane extraction): 0.07 wt %
extraction solvent lost to the aqueous layer ([5]; Example 5H, heptane extraction): 0.015%

CCCc1ccc(O)c(OC)c1 [MPP, 2-methoxy-4-propylphenol]
Kow UL/LL, partition coefficients for toluene extraction [6]: 33.59
MIBC extraction partition coefficient [2, 12]: >50
solubility in deionized water [7]: only partial solubility
partition coefficient, weight percent in organic layer extract vs. remaining lower layer aqueous fraction ([5]; Example 5E, 1 wt % MPP in deionized water extracted with one part toluene): 161.7
recovered by extraction from the aqueous phase ([5]; Example 5E, MPP as a 1% solution, toluene as solvent): More than 99%
apparent partition coefficient [5, 13]: 76
removed down to (residual in water) [5, 13]: 0.08 wt %
amount lost to the aqueous phase [3, 14]: 0.15 wt %
apparent partition coefficient between organic and aqueous layers [3, 14]: 612
extractant lost to the aqueous phase [3, 8]: 0.12 wt %
measured in the final organic extract [3, 8]: 55 wt %
oil/water partition coefficient [3, 8]: 462

Cc1cccc(O)c1 [cresol, meta-cresol]
apparent partition coefficient between organic and aqueous phases [5, 15]: 20.8
residual left in the aqueous layer [5, 15]: 0.05 wt %
remained with the aqueous layer ([5]; Example 5H, 1% m-cresol solution extracted with heptane): 0.56 wt %
apparent partition coefficient between oil and water [3, 16]: 39
lost to the aqueous layer [3, 16]: 2.7 wt %

CO [MeOH, Methanol]
MIBC extraction partition coefficient [2, 12]: 0.30
Extr #1 LL-wt % [4]: 0.18 wt %
Extr #2 % extract [1]: 16%
Extr #2 LL-wt % [1]: 0.15 wt %

OCCO [EG, ethylene glycol]
Extr #1 K UL/LL [4]: 0.37
Extr #1 LL-wt % [4]: 0.20 wt %
Extr #2 % extract [1]: −43%
Extr #2 K UL/LL [1]: 0.045
extraction from aqueous lower layer by MIBC (in words) [1]: not extracted
Extr #2 LL-wt % [1]: 0.29 wt %
Kow [3, 9]: 0.000
Kow ([3]; Ex 5B, MPP extraction solvent): 0.037
Kow [3, 10]: 0.079
Kow [3, 11]: 0.036

CCO [EtOH, ethanol]
Extr #2 % extract [1]: 39%
Extr #2 LL-wt % [1]: 0.16 wt %

Cc1cccc(C)c1O [xylenol, 2,6-xylenol]
collected in the upper layer (toluene phase) distillation, relative to the bottom phase distillation ([6]; after toluene extraction, separate distillation of phases): 99.5%
Kow UL/LL, partition coefficients for toluene extraction [6]: 51.79
MIBC extraction partition coefficient [2, 12]: 87.26

Cc1ccccc1 [toluene]
extraction solvent lost to the aqueous phase ([5]; Example 5G, toluene extraction): 0.04 wt %
loss of toluene extraction solvent ([5]; toluene extraction, lost to the lower layer): less than 1%

From patent publication US20160186068A1, “METHODS AND SYSTEMS FOR PROCESSING CELLULOSIC BIOMASS” (SHELL OIL COMPANY, priority 2014, published 2016)
